Measured values taken from patent publication US7161032B2, “Sulfonamide derivatives, insecticides for agricultural and horticultural use, and usage thereof” (Nihon Nohyaku Co., Ltd., priority 2002, dated 2007).

Tests used:
Assay type in all cases: in vivo
[1] = system: Diamond Back Moth (Plutella xylostella); assay: Insecticidal effect on diamond back moth (Test Example 1): egg-bearing Chinese cabbage seedling immersed in 50 ppm liquid chemical
Summary of the method: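 Seedlings bearing 2-day-old eggs dipped about 30 s in 50 ppm formulated compound, air-dried, held at 25° C. Hatched larvae counted 6 days after immersion; mortality calculated and graded by criterion. Triplicate groups of 10 insects.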

[2] = system: Common Cutworm (Spodoptera litura); assay: Insecticidal effect on common cutworm (Test Example 2): cabbage leaf piece immersed in 50 ppm liquid chemical; settings: common cutworm (Spodoptera litura) second-instar larvae, 8 days after inoculation, 25° C.
Summary of the method: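 Cabbage leaf pieces (cv. Shikidori) dipped ~30 s in formulated compound at 50 ppm and air-dried. Second-instar larvae added, kept at 25° C. Dead and alive counted at 8 days to give % mortality, scored against a criterion scale; three groups of 10 insects.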

[3] = system: Smaller Tea Tortrix (Adoxophyes sp.); assay: Insecticidal effect on smaller tea tortrix (Test Example 3): tea leaves immersed in 50 ppm liquid chemical; settings: smaller tea tortrix (Adoxophyes sp.) larvae, 8 days after inoculation, 25° C., humidity 70%
Summary of the method: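 Tea leaves dipped about 30 seconds in 50 ppm compound preparation, air-dried, then infested with larvae and held at 25° C and 70% humidity. Dead and alive counted 8 days after inoculation; triplicate groups of 10 insects.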

Row | Structure (SMILES) | Insecticidal effect (mortality grade), Test Example 1 [1] | Insecticidal effect (mortality grade), Test Example 2 [2] | Insecticidal effect (mortality grade), Test Example 3 [3]
1 | CCNS(=O)(=O)CC(C)NC(=O)c1ccccc1C(=O)Nc1ccc(C(F)(C(F)(F)F)C(F)(F)F)cc1C (stereo not drawn) [1-207] | A (Mortality 100%) | A (Mortality 100%) | E (Mortality less than 50%)
2 | CCN(CC)S(=O)(=O)CC(C)(C)NC(=O)c1ccccc1C(=O)Nc1ccc(C(F)(C(F)(F)F)C(F)(F)F)cc1C [1-208] | A (Mortality 100%) | E (Mortality less than 50%) | A (Mortality 100%)
3 | CCN(CC)S(=O)(=O)CC(C)NC(=O)c1c(Cl)cccc1C(=O)Nc1ccc(C(F)(C(F)(F)F)C(F)(F)F)cc1C (stereo not drawn) [1-211] | A (Mortality 100%) | A (Mortality 100%) | A (Mortality 100%)
4 | CCNS(=O)(=O)CC(C)NC(=O)c1c(Br)cccc1C(=O)Nc1ccc(C(F)(C(F)(F)F)C(F)(F)F)cc1C (stereo not drawn) [1-212] | A (Mortality 100%) | A (Mortality 100%) | A (Mortality 100%)
5 | Cc1cc(C(F)(C(F)(F)F)C(F)(F)F)ccc1NC(=O)c1cccc(Br)c1C(=O)NC(C)CS(=O)(=O)N(C)C (stereo not drawn) [1-213] | A (Mortality 100%) | A (Mortality 100%) | A (Mortality 100%)
6 | CCN(CC)S(=O)(=O)CC(C)NC(=O)c1c(Br)cccc1C(=O)Nc1ccc(C(F)(C(F)(F)F)C(F)(F)F)cc1C (stereo not drawn) [1-214] | A (Mortality 100%) | A (Mortality 100%) | A (Mortality 100%)
7 | CCCNS(=O)(=O)CC(C)NC(=O)c1c(Br)cccc1C(=O)Nc1ccc(C(F)(C(F)(F)F)C(F)(F)F)cc1C (stereo not drawn) [1-215] | A (Mortality 100%) | A (Mortality 100%) | A (Mortality 100%)
8 | Cc1cc(C(F)(C(F)(F)F)C(F)(F)F)ccc1NC(=O)c1cccc(Br)c1C(=O)NC(C)CS(=O)(=O)NC(C)C (stereo not drawn) [1-216] | A (Mortality 100%) | A (Mortality 100%) | A (Mortality 100%)
9 | CCCCNS(=O)(=O)CC(C)NC(=O)c1c(Br)cccc1C(=O)Nc1ccc(C(F)(C(F)(F)F)C(F)(F)F)cc1C (stereo not drawn) [1-217] | A (Mortality 100%) | A (Mortality 100%) | A (Mortality 100%)
10 | Cc1cc(C(F)(C(F)(F)F)C(F)(F)F)ccc1NC(=O)c1cccc(Br)c1C(=O)NC(C)CS(=O)(=O)NCc1ccccc1 (stereo not drawn) [1-218] | A (Mortality 100%) | A (Mortality 100%) | A (Mortality 100%)
11 | CCN(CC)S(=O)(=O)CC(C)(C)NC(=O)c1c(Br)cccc1C(=O)Nc1ccc(C(F)(C(F)(F)F)C(F)(F)F)cc1C [1-219] | A (Mortality 100%) | A (Mortality 100%) | A (Mortality 100%)
12 | CCNS(=O)(=O)CC(C)NC(=O)c1c(I)cccc1C(=O)Nc1ccc(Cl)c(Cl)c1Cl (stereo not drawn) [1-266] | A (Mortality 100%) | C (Mortality 89–80%) | E (Mortality less than 50%)
13 | CCN(CC)S(=O)(=O)CC(C)NC(=O)c1c(I)cccc1C(=O)Nc1ccc(Cl)c(Cl)c1Cl (stereo not drawn) [1-267] | A (Mortality 100%) | C (Mortality 89–80%) | E (Mortality less than 50%)
14 | CCN(CC)S(=O)(=O)CC(C)(C)NC(=O)c1c(I)cccc1C(=O)Nc1ccc(Cl)c(Cl)c1Cl [1-268] | A (Mortality 100%) | A (Mortality 100%) | A (Mortality 100%)
15 | CCNS(=O)(=O)CC(C)NC(=O)c1c(I)cccc1C(=O)Nc1ccc(OC(F)(F)F)cc1C (stereo not drawn) [1-275] | A (Mortality 100%) | E (Mortality less than 50%) | E (Mortality less than 50%)
16 | CCN(CC)S(=O)(=O)CC(C)NC(=O)c1c(I)cccc1C(=O)Nc1ccc(OC(F)(F)F)cc1C (stereo not drawn) [1-276] | A (Mortality 100%) | E (Mortality less than 50%) | E (Mortality less than 50%)
17 | CCN(CC)S(=O)(=O)CC(C)(C)NC(=O)c1c(I)cccc1C(=O)Nc1ccc(OC(F)(F)F)cc1C [1-277] | A (Mortality 100%) | A (Mortality 100%) | A (Mortality 100%)
18 | CCN(CC)S(=O)(=O)CC(C)NC(=O)c1c(I)cccc1C(=O)Nc1ccc(OC(F)(F)F)cc1Cl (stereo not drawn) [1-285] | A (Mortality 100%) | C (Mortality 89–80%) | E (Mortality less than 50%)
19 | CCN(CC)S(=O)(=O)CC(C)(C)NC(=O)c1c(I)cccc1C(=O)Nc1ccc(OC(F)(F)F)cc1Cl [1-286] | A (Mortality 100%) | A (Mortality 100%) | E (Mortality less than 50%)
20 | CCN(CC)S(=O)(=O)CC(C)NC(=O)c1c(I)cccc1C(=O)Nc1ccc(C(F)(F)C(F)(F)F)cc1C (stereo not drawn) [1-301] | A (Mortality 100%) | A (Mortality 100%) | A (Mortality 100%)
21 | CCN(CC)S(=O)(=O)CC(C)(C)NC(=O)c1c(I)cccc1C(=O)Nc1ccc(C(F)(F)C(F)(F)F)cc1C [1-302] | A (Mortality 100%) | A (Mortality 100%) | A (Mortality 100%)
